From patent publication US10039843B2, “Paramagnetic solid lipid nanoparticles (pSLNs) containing metal amphiphilic complexes for MRI” (BRACCO IMAGING S.P.A., priority 2012, dated 2018) come the findings set out here.

Structures are written as SMILES.

This data set can be described thus: Relaxivity values of some known compounds for MRI (Table I). It is filed as physicochemical. The conditions noted are these: 0.47 T, 25° C., pH 7; for r1p HSA 4%: HSA 4% in NaCl 0.9%. From the text:
As mentioned above, pSLNs usually show very high relaxivity in physiological medium, higher than values typically found in non-derivatized hydrophilic gadolinium complexes, in particular when formulated in SLNs, as better detailed in the experimental part for some representative compounds. As an example, relaxivity values for some Gd(III)complexes are indicated below, where values measured in physiologic conditions refer to those in obtained HSA 4% in NaCl 0.9%.

Regarding `O=C([O-])CN1CCN(CC(=O)[O-])CCN([C@H](CO)[C@H](O)CO)CCN(CC(=O)[O-])CC1.[Gd+3]` (racemic) [Gd-BT-DO3A, Gadobutrol], the “r1p HSA 4%” value came out at 4.31 mM⁻¹ s⁻¹, the “r1p Human plasma (HP)” value was found to be 5.76 mM⁻¹ s⁻¹ and the “r1p Water” value is 3.75 mM⁻¹ s⁻¹.

Take `C[NH2+]C[C@H](O)[C@@H](O)[C@H](O)[C@H](O)CO.O=C([O-])CN1CCN(CC(=O)[O-])CCN(CC(=O)[O-])CCN(CC(=O)[O-])CC1.[Gd+3]` [Gd-DOTA, Gadoterato meglumine [[1,4,7,10-tetraazacyclododecane-1,4,7,10-tetraacetate (4-)] gadolinate (1-)] meglumine]: the “r1p HSA 4%” value came to 4.11 mM⁻¹ s⁻¹, the “r1p Human plasma (HP)” value was 4.51 mM⁻¹ s⁻¹ and the “r1p Water” value was 3.61 mM⁻¹ s⁻¹.

In the case of `CC(O)CN1CCN(CC(=O)[O-])CCN(CC(=O)[O-])CCN(CC(=O)[O-])CC1.[Gd+3]` (stereo not drawn) [Gd-HP-DO3A, Gadoteridol[10-(2-hydroxyprop-1-yl) -1,4,7,10-tetraazacyclododecane-1,4,7-triacetate(3-)] gadolinium], the “r1p HSA 4%” value worked out at 3.85 mM⁻¹ s⁻¹, the “r1p Human plasma (HP)” value amounted to 4.80 mM⁻¹ s⁻¹ and the “r1p Water” value came out at 3.32 mM⁻¹ s⁻¹.
